The results in this text go back to patent US20150218164A1, “SUBSTITUTED NAPHTHYRIDINEDIONE DERIVATIVES AS HIV INTEGRASE INHIBITORS” (MERCK SHARP & DOHME CORP., priority 2012, published 2015).

Like-named read-outs stand apart in the source and are kept apart here.

The test system of this experiment is HIV-1 (NL4-3 strain). Nature of the experiment: Assay for inhibition of HIV replication (MT4-gag-GFP reporter cells, wild type cell assay). In kind it is cell-based. The conditions noted are these: MT4-GFP cells infected with HIV-1 NL4-3, infected cells at 48 h / 24 h, read-out: Wild Type Cell Assay IP (% NHS). Here is the method:
This assay is a kinetic assay that employs a reporter cell line (MT4-gag-GFP) to quantify the number of new cells infected in each round of replication. Briefly, MT4-GFP cells (250,000 cells/ml) were bulk-infected with HIV-1 (NL4-3 strain) at low multiplicity of infection (MOI) in RPMI+10% FBS for 24 hours. Cells were then washed once in RPMI+10% FBS and resuspended RPMI+10% or 50% normal human serum (NHS). Test compounds were serial-diluted in DMSO on ECHO. The infected MT4-GFP cells were added to a 384-well poly-D-lysine coated black plate with clear bottom in which the diluted test compounds were placed. The cells were seeded at 8,000 cells per well and the final DMSO concentration was 0.4%. The infected cells (Green GFP cells) were quantified at both 24 and 48 hours post incubation using Acumen eX3. Viral reproductive ratio (R0) was determined using the number of infected cells at 48 hours divided by the number of infected cells at 24 hours. Percent viral growth inhibition was calculated by [1−(R−Rtripledrug)/(RDMSO−Rtripledrug)]*100. Compound potency IP or IC50 was determined by a 4-parameter dose response curve analysis.

[1] abbreviates: Human immunodeficiency virus 1, NL43, 10% NHS.
Setting [2] is: Human immunodeficiency virus 1, NL43, 50% NHS.

As for `O=C1c2c(c3n(c(=O)c2O)[C@@]2(CC[C@H]4C[C@H]42)N(CC(O)CF)C3=O)CCN1Cc1ccc(F)c(Cl)c1` (single isomer, unassigned) [Compound 4], the IC50 under setting [1] worked out at 7.5 nM.

On to `CSCC[C@H](N)C(=O)O[C@@H](C)CN1C(=O)c2c3c(c(O)c(=O)n2[C@@]12CC[C@H]1C[C@H]12)C(=O)N(Cc1ccc(F)c(Cl)c1)CC3` [Compound 11], for which the IC50 under setting [2] turned out to be 71 nM.

As for `O=C1c2c(c3n(c(=O)c2O)[C@@]2(CC[C@H]4C[C@H]42)N(CC(F)CO)C3=O)CCN1Cc1ccc(F)c(Cl)c1` (single isomer, unassigned) [Compound 5], the IC50 under setting [1] was 27 nM.

For the molecule `CSCC12CC1CCC21NC(=O)c2c3c(c(O)c(=O)n21)C(=O)N(Cc1ccc(F)c(Cl)c1)CC3` (stereo not shown) [Compound 17], where the note is “50% NHS”, the IC50 worked out at 28 nM.

For the molecule `C[C@@H](CN1C(=O)c2c3c(c(O)c(=O)n2[C@@]12CC[C@H]1C[C@H]12)C(=O)N(Cc1ccc(F)c(Cl)c1)CC3)OP(=O)(O)O` [Compound 1], the IC50 under setting [2] stood at 1200 nM.

With `C[C@@H](O)CN1C(=O)c2c3c(c(O)c(=O)n2[C@@]12CC[C@H]1C[C@H]12)C(=O)N(Cc1ccc(F)c(Cl)c1)CC3` (single isomer, unassigned) [Compound 2], the IC50 under setting [2] amounted to 33 nM.

For the molecule `C[C@H](CN1C(=O)c2c3c(c(O)c(=O)n2[C@@]12CC[C@H]1C[C@H]12)C(=O)N(Cc1ccc(F)c(Cl)c1)CC3)OP(=O)(O)O` [Compound 7], under setting [2], the IC50 was 1090 nM.

Turning to `C[C@@H](CN1C(=O)c2c3c(c(O)c(=O)n2[C@@]12CC[C@H]1C[C@H]12)C(=O)N(Cc1ccc(F)c(Cl)c1)CC3)OC(=O)CN(C)C` [Compound 13], the IC50 under setting [2] was 69 nM.

Regarding `C[C@H](N)C(=O)O[C@@H](C)CN1C(=O)c2c3c(c(O)c(=O)n2[C@@]12CC[C@H]1C[C@H]12)C(=O)N(Cc1ccc(F)c(Cl)c1)CC3` [Compound 9], the IC50 under setting [2] came out at 42 nM.

Consider `C[C@H](O)CN1C(=O)c2c3c(c(O)c(=O)n2[C@@]12CC[C@H]1C[C@H]12)C(=O)N(Cc1ccc(F)c(Cl)c1)CC3` (single isomer, unassigned) [Compound 6], for which the IC50 under setting [2] is 53 nM.

For `CC(C)[C@H](N)C(=O)O[C@@H](C)CN1C(=O)c2c3c(c(O)c(=O)n2[C@@]12CC[C@H]1C[C@H]12)C(=O)N(Cc1ccc(F)c(Cl)c1)CC3` [Compound 12], under setting [2], the IC50 came to 54 nM.

In the case of `CN1C(=O)c2c3c(c(O)c(=O)n2[C@]12CC[C@@H]1C[C@@]12CO)C(=O)N(Cc1ccc(F)c(Cl)c1)CC3` [Compound 15], the IC50 under setting [2] came to 24 nM.

For `C[C@@H](CN1C(=O)c2c3c(c(O)c(=O)n2[C@@]12CC[C@H]1C[C@H]12)C(=O)N(Cc1ccc(F)c(Cl)c1)CC3)OC(=O)[C@@H](N)CCCCN` [Compound 8], under setting [2], the IC50 was 46 nM.

Take `CC(C)C[C@H](N)C(=O)O[C@@H](C)CN1C(=O)c2c3c(c(O)c(=O)n2[C@@]12CC[C@H]1C[C@H]12)C(=O)N(Cc1ccc(F)c(Cl)c1)CC3` [Compound 10]: under setting [2], the IC50 is 49 nM.

Consider `CSCC12CC1CCC21NC(=O)c2c3c(c(O)c(=O)n21)C(=O)N(Cc1ccc(F)c(Cl)c1)CC3` (stereo not shown) [Compound 16], for which the IC50 under setting [2] worked out at 20 nM.

Take `CC(O)CCN1C(=O)c2c3c(c(O)c(=O)n2[C@@]12CC[C@H]1C[C@H]12)C(=O)N(Cc1ccc(F)c(Cl)c1)CC3` (single isomer, unassigned) [Compound 3]: the IC50 under setting [2] is 32 nM.

On to `CN1C(=O)c2c3c(c(O)c(=O)n2[C@@]12CC[C@@H]1C[C@@]12CO)C(=O)N(Cc1ccc(F)c(Cl)c1)CC3` [Compound 14], for which the IC50 under setting [2] is 14 nM.

Consider `CS(=O)(=O)CC12CC1CCC21NC(=O)c2c3c(c(O)c(=O)n21)C(=O)N(Cc1ccc(F)c(Cl)c1)CC3` (stereo not shown) [Compound 18], for which the IC50 under setting [2] is 37 nM.

For `CN1C(=O)c2c3c(c(O)c(=O)n2[C@]12CC[C@@H]1C[C@@]12COP(=O)(O)O)C(=O)N(Cc1ccc(F)c(Cl)c1)CC3` (single isomer, unassigned) [Compound 19], the IC50 under setting [2] was determined as 2090 nM.
